Data set [1] concerns the target recombinant HIV-1 IN (integrase strand transfer) (Human immunodeficiency virus type 1 group M subtype B, UniProt P04585). The data set can be described thus: INST biochemical assay.
Another data set deals with CEM-SS cells. The data set can be described thus: Cell viability / cytotoxicity in cytoprotection assay. Format: cell-based.
In data set [2] the test system is HIV-1 IIIB in CEM-SS cells. Briefly: microbe, parasite or virus in culture. Type of data set: cell-based. To be noted: for Antiviral Screening (10 μM) CPE reduction %: HIV-1 IIIB in CEM-SS cells, versus viral control.
The nature of data set [3]: Cell viability / cytotoxicity in cytoprotection assay. Format: cell-based. The conditions noted are these: human.
Where [4] appears, read: read-out: INST IC50, mean ± SD, at least three independent experiments.

Like-named read-outs stand apart in the source and are kept apart here.

With “1-(Hydroxy)-1,2,3,6-tetrahydro-2,6-dioxo-4-(phenylamino)pyrimidine-5-carboxamide [Compound 49]”, the IC50 in data set [1] (setting [4]) was above 100 µM. On to “3-(Benzyloxy)-6-(ethylamino)-N-(4-fluorobenzyl)-N-methyl-2,4-dioxo-1,2,3,4-tetrahydropyrimidine-5-carboxamide [Compound 53]”, for which, in the data set with CEM-SS cells (10 µM), the “Antiviral Screening (10 μM) viability %” value stood at 89%. Further, in data set [2], the “Antiviral Screening (10 μM) CPE reduction %” value is reported as 0%. Besides, the half-maximal inhibitory concentration (IC50) in data set [1] (setting [4]) is 7 ± 3.3 µM. Take `O=C(NCc1ccccc1)c1c(Nc2ccccc2)[nH]c(=O)n(O)c1=O` [Compound 24, N-Benzyl-1-(hydroxy)-1,2,3,6-tetrahydro-2,6-dioxo-4-(phenylamino)pyrimidine-5-carboxamide]: the IC50 in data set [1] was above 100 µM. For the compound `O=C(NCc1ccccc1)c1c(Nc2ccc(-c3ccccc3)cc2)[nH]c(=O)n(O)c1=O` [Compound 25, N-Benzyl-1-(hydroxy)-1,2,3,6-tetrahydro-2,6-dioxo-4-(biphenylamino)pyrimidine-5-carboxamide], in data set [1], the IC50 was above 100 µM. In the case of `CCNc1[nH]c(=O)n(O)c(=O)c1C(=O)NCc1ccc(F)c(F)c1` [Compound 42, N-(3,4-difluorobenzyl)-1-(hydroxy)-4-(ethylamino)-1,2,3,6-tetrahydro-2,6-dioxopyrimidine-5-carboxamide], the “Antiviral Screening (10 μM) viability %” value in the data set with CEM-SS cells (10 μM, CEM-SS cells, versus cell control) was “cytotoxic”. Moreover, the “Antiviral Screening (10 μM) CPE reduction %” value in data set [2] is “inactive”. With `CCNc1[nH]c(=O)n(O)c(=O)c1C(=O)NCc1ccc(Cl)c(F)c1` [Compound 44, N-(4-Chloro-3-fluorobenzyl)-1-(hydroxy)-4-(ethylamino)-1,2,3,6-tetrahydro-2,6-dioxopyrimidine-5-carboxamide], the “TI (therapeutic index, CC50/EC50)” value in data set [2] (cytoprotection assay, CEM-SS cells) amounted to 100. In the case of `CCNc1[nH]c(=O)n(O)c(=O)c1C(=O)NCCCl` [Compound 50, 1-(Hydroxy)-N-(2-chloroethyl)-4-(ethylamino)-1,2,3,6-tetrahydro-2,6-dioxopyrimidine-5-carboxamide], the IC50 in data set [1] is above 100 µM. As to `CCNc1[nH]c(=O)n(O)c(=O)c1C(=O)Oc1ccccc1` [Compound 51, Phenyl-1-(hydroxy)-4-(ethylamino)-1,2,3,6-tetrahydro-2,6-dioxopyrimidine-5-carboxylate], the IC50 in data set [1] is above 100 µM. Still for that read-out and setting: in the case of `CCNc1c(C(=O)NCc2ccc(F)cc2)c(=O)n(O)c(=O)n1C` [Compound 52, N-(4-Fluorobenzyl)-3-(hydroxy)-6-(ethylamino)-1,2,3,4-tetrahydro-1-methyl-2,4-dioxopyrimidine-5-carboxamide] it was above 100 µM.

For `O=C(NCc1ccccc1)c1c(O)n(O)c(=O)[nH]c1=O` [Compound 54, N-Benzyl-1,6-dihydroxy-2,4-dioxo-1,2,3,4-tetrahydropyrimidine-5-carboxamide], the viability at 6 days, 10 µM in data set [3] was 100%. For the same compound, in data set [2] (Human immunodeficiency virus 1, IIIB, CEM-SS, 144 h, read-out: Antiviral Screening (10 μM) CPE reduction %), the inhibition at 10 µM was 26%.

By IC50 is commonly meant the concentration that inhibits the measured activity by half. The viability is a per cent measure of how many cells are alive, often set against a control.

(Values after PMC4945466 (Journal of medicinal chemistry, 2016).)
